According to patent US4264497A, “1,5-Benzothiazepine compounds” (Maruko Seiyaku Co., Ltd., priority 1978, dated 1981):
Where a name gives a salt, the structure may show the parent alone.

Key:
ulcer = experiment: Anti-ulcer activity, overall statement; assay type: in vivo; conditions: in words, vs Glycopyrrolate
mice [1] = experiment: Acute toxicity, overall comparison; assay type: in vivo; conditions: in words, vs Glycopyrrolate
Gastric secretion = Gastric secretion inhibitory activity, observed in the anti-ulcer test using aspirin; assay type: in vivo; conditions: observed simultaneously in anti-ulcer test using aspirin (rats, s.c., 5 mg/kg)
[2] = test system: Aspirin-Stress induced ulcer; experiment: Anti-ulcer activity, aspirin-stress induced ulcer, mice; assay type: in vivo; conditions: s.c., 5 mg/kg
[3] = test system: Pylorus Ligature induced ulcer; experiment: Anti-ulcer activity, pylorus ligature ulcer, rats; assay type: in vivo; conditions: s.c., 20 mg/kg
[4] = test system: Indomethacin induced ulcer; experiment: Anti-ulcer activity, indomethacin induced ulcer, rats; assay type: in vivo; conditions: p.o.
mice [5] = experiment: Acute toxicity LD50, oral, in mice; conditions: oral
mice [6] = experiment: Acute toxicity LD50, intravenous, in mice; conditions: intravenous
Stress induced ulcer = experiment: Anti-ulcer activity, stress induced ulcer, mice; assay type: in vivo; conditions: p.o., 5 mg/kg
Aspirin induced ulcer = experiment: Anti-ulcer activity, aspirin induced ulcer, rats; assay type: in vivo; conditions: s.c., 5 mg/kg
Corediastasis = Corediastasis (side effect), intraperitoneal; assay type: in vivo
[7] = Acute toxicity LD50, oral, in mice; conditions: mouse, in vivo, po
Desalivation = Desalivation activity (side effect), relative to racemate; assay type: in vivo; conditions: for Desalivation Activity: relative, racemic mixture = 1, side effect
[8] = Acute toxicity LD50, intravenous, in mice; conditions: mouse, in vivo, iv
Stress ulcer = experiment: Anti-ulcer activity (Stress), relative to racemate; assay type: in vivo; conditions: for Anti-ulcer Activity (Stress): relative, racemic mixture = 1
Anticholinergic activity = Anticholinergic activity (relative to racemate); assay type: in vivo

| Structure (SMILES) | Gastric secretion inhibitory activity, % Inhibitory (Gastric secretion) | Anti-ulcer Activity, % Inhibitory [2] | Anti-ulcer Activity, % Inhibitory [3] | Anti-ulcer Activity, % Inhibitory (Stress induced ulcer) | Anti-ulcer Activity, % Inhibitory (Aspirin induced ulcer) | corediastasis ED20 (Corediastasis; in vivo, ip) | LD50 [7] | Desalivation Activity (Desalivation) | LD50 [8] | Anti-ulcer Activity (Stress) (Stress ulcer) | further results |
| --- | --- | --- | --- | --- | --- | --- | --- | --- | --- | --- | --- |
| CN1CCN(C[C@H]2C(=O)Nc3ccccc3S[C@H]2c2ccccc2)CC1 (relative stereo) [Compound A] | 90% | 51.8% | 100.0% | 91.6% | 100.0% | 0.31 mg/kg |  |  |  |  | anti-ulcer activity compared with Glycopyrrolate (ulcer): equal or higher anti-ulcer activity; degree of acute toxicity compared with Glycopyrrolate (mice [1]): approximately the same degree of acute toxicity as Glycopyrrolate; Anti-ulcer Activity, % Inhibitory ([4]; A: 5 mg/kg): 99.0%; LD50 (in mice), Oral (mice [5]; mice, test compounds A-C): 650 mg/kg; LD50 (in mice), Intravenous (mice [6]; mice, test compounds A-C): 65 mg/kg |
| CN1CCN(C[C@H]2C(=O)Nc3ccccc3S[C@H]2c2ccccc2)CC1 (relative stereo) [Racemic Mixture, (±)-cis-2,3-dihydro-3-[(4-methylpiperazinyl)methyl]-2-phenyl-1,5-benzothiazepin-4(5H)-one] |  |  |  |  |  |  | 650 mg/kg | 1 | 65 mg/kg | 1 |  |
| CN1CCN(C[C@H]2C(=O)Nc3ccccc3S[C@H]2c2ccccc2)CC1 (single isomer, unassigned) [(-) Form, cis-(-)-2,3-dihydro-3-[(4-methylpiperazinyl)methyl]-2-phenyl-1,5-benzothiazepin-4(5H)-one] |  |  |  |  |  |  | 870 mg/kg | 0.6 | 160 mg/kg | 4 | anticholinergic activity relative to the corresponding racemate (Anticholinergic activity; (-) form vs racemate): 2 times; Anticholinergic Activity (Anticholinergic activity; relative, racemic mixture = 1): 2; acute toxicity by oral administration, degree relative to racemate (mice [5]; (-) form vs racemate): 3/4; desalivation activity as a side-effect, degree relative to racemate (Desalivation; (-) form vs racemate): about 1/2; acute toxicity by intravenous administration, degree relative to racemate (mice [6]; (-) form vs racemate): 2/5; anti-ulcer activity relative to the corresponding racemate (Stress ulcer; (-) form vs racemate): 4 times |
| C[N+]1(C)CCC(OC(=O)C(O)(c2ccccc2)C2CCCC2)C1 (centres unmarked) [Compound B, Glycopyrrolate] | 90% | 47.6% | 100.0% | 81.9% | 100.0% | 0.037 mg/kg |  |  |  |  | Anti-ulcer Activity, % Inhibitory ([4]; B: 20 mg/kg): 88.6% |
| CN1[C@@H]2CC[C@H]1CC(OC(=O)C(CO)c1ccccc1)C2 (some centres unmarked) [Compound C, Atropin Sulfate] | 70% | 48.0% | 13.0% | 82.3% | 79.3% |  |  |  |  |  | corediastasis ED20 (Corediastasis; intraperitoneal administration): 0.076 mg/kg |
